Laboratory results published in the supplement of paper PMC8253809.

How the values were obtained:
[1] = tested on: iAstro (astrocyte control); experiment: maximal growth inhibition (yFin) relative to DMSO / staurosporine; higher = more efficacious
Summary of the method: (§1)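 Patient-derived pHGG/DIPG cell lines and astrocyte controls were grown on 1% Geltrex-coated 384-well plates and exposed by pin tool to a 10-point threefold dilution series (mean top concentration 35 μM), in triplicate. Exposure was 7 days (iAstro 3 days) at 37 °C, 5% CO2. CellTiter-Glo luminescence was log2-transformed, normalised per plate to % activity between negative (solvent) and positive control wells, and pooled. EC50 and maximal response (yFin) come from the lowest-AICc three- or four-parameter log-logistic fit.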

[2] = tested on: SUDIPGXXI (diffuse intrinsic pontine glioma line); experiment: as above
Summary of the method: as §1

[3] = tested on: SUDIPGXVII (diffuse intrinsic pontine glioma line); experiment: as above
Summary of the method: as §1

[4] = tested on: HGGX42 (H3.3 G34R paediatric high-grade glioma line); experiment: as above
Summary of the method: as §1

[5] = tested on: DIPGX29 (H3.3 K27M diffuse intrinsic pontine glioma line); experiment: as above
Summary of the method: as §1

[6] = tested on: SUDIPGXIII (diffuse intrinsic pontine glioma line); experiment: as above
Summary of the method: as §1

[7] = tested on: DIPGX37 (H3.3 K27M diffuse intrinsic pontine glioma line); experiment: as above
Summary of the method: as §1

[8] = tested on: SUDIPGIV (diffuse intrinsic pontine glioma line); experiment: as above
Summary of the method: as §1

[9] = tested on: SUDIPGVI (diffuse intrinsic pontine glioma line); experiment: as above
Summary of the method: as §1

[10] = tested on: HGGX39 (paediatric high-grade glioma line); experiment: as above
Summary of the method: as §1

[11] = tested on: DIPGX7 (H3.3 K27M diffuse intrinsic pontine glioma line); experiment: as above
Summary of the method: as §1

[12] = tested on: DIPGX9 (diffuse intrinsic pontine glioma line); experiment: area under dose-response curve of % growth inhibition (log2 RLU vs DMSO / staurosporine), 1e-11 to 1e-4 M (% x log10 M); higher = more growth inhibition
Summary of the method: (§2)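 On 1% Geltrex-coated 384-well plates, patient-derived pHGG/DIPG cell lines and astrocytes were treated in triplicate across 10 threefold dilutions (mean top concentration 35 μM) for 7 days, with iAstro treated for 3 days, at 37 °C, 5% CO2. Log2-transformed CellTiter-Glo luminescence was normalised per plate to % activity between solvent and positive controls. Area under the curve was obtained by the trapezoid rule from a log-logistic fit, or from a smoothing spline when that fit failed.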

[13] = tested on: iAstro; experiment: as above
Summary of the method: as §2

[14] = tested on: SUDIPGXXI; experiment: as above
Summary of the method: as §2

[15] = tested on: SUDIPGXVII; experiment: as above
Summary of the method: as §2

[16] = tested on: HGGX42; experiment: as above
Summary of the method: as §2

[17] = tested on: DIPGX29; experiment: as above
Summary of the method: as §2

[18] = tested on: SUDIPGXIII; experiment: as above
Summary of the method: as §2

[19] = tested on: DIPGX37; experiment: as above
Summary of the method: as §2

[20] = tested on: SUDIPGXIX (diffuse intrinsic pontine glioma line); experiment: as above
Summary of the method: as §2

[21] = tested on: SUDIPGIV; experiment: as above
Summary of the method: as §2

[22] = tested on: HGGX2 (paediatric high-grade glioma line); experiment: as above
Summary of the method: as §2

[23] = tested on: SUDIPGVI; experiment: as above
Summary of the method: as §2

[24] = tested on: HGGX39; experiment: as above
Summary of the method: as §2

[25] = tested on: HGGX6 (H3.3 G34R paediatric high-grade glioma line); experiment: as above
Summary of the method: as §2

[26] = tested on: HABS (astrocyte control); experiment: as above
Summary of the method: as §2

[27] = tested on: DIPGX7; experiment: as above
Summary of the method: as §2

[28] = tested on: iAstro; experiment: EC50 (inflection of fitted growth-inhibition curve) (log10 M)
Summary of the method: as §1

[29] = tested on: SUDIPGXXI; experiment: as above
Summary of the method: as §1

[30] = tested on: SUDIPGXVII; experiment: as above
Summary of the method: as §1

[31] = tested on: HGGX42; experiment: as above
Summary of the method: as §1

[32] = tested on: DIPGX29; experiment: as above
Summary of the method: as §1

[33] = tested on: SUDIPGXIII; experiment: as above
Summary of the method: as §1

[34] = tested on: DIPGX37; experiment: as above
Summary of the method: as §1

[35] = tested on: SUDIPGIV; experiment: as above
Summary of the method: as §1

[36] = tested on: SUDIPGVI; experiment: as above
Summary of the method: as §1

[37] = tested on: HGGX39; experiment: as above
Summary of the method: as §1

[38] = tested on: DIPGX7; experiment: as above
Summary of the method: as §1

[39] = tested on: DIPGX9; experiment: maximal growth inhibition (yFin) relative to DMSO / staurosporine; higher = more efficacious
Summary of the method: as §1

[40] = tested on: SUDIPGXIX; experiment: as above
Summary of the method: as §1

[41] = tested on: HGGX6; experiment: as above
Summary of the method: as §1

[42] = tested on: HABS; experiment: as above
Summary of the method: as §1

[43] = tested on: DIPGX9; experiment: EC50 (inflection of fitted growth-inhibition curve) (log10 M)
Summary of the method: as §1

[44] = tested on: SUDIPGXIX; experiment: as above
Summary of the method: as §1

[45] = tested on: HGGX6; experiment: as above
Summary of the method: as §1

[46] = tested on: HABS; experiment: as above
Summary of the method: as §1

## Fc1ccc(-c2c3cccc(C(F)(F)F)c3nn2Cc2ccc(F)cc2Cl)cc1
[1]
  maximal growth inhibition: 33.9%
[2]
  maximal growth inhibition: 112%
[3]
  maximal growth inhibition: 30.9%
[4]
  maximal growth inhibition: 38.9%
[5]
  maximal growth inhibition: 38.7%
[6]
  maximal growth inhibition: 51.1%
[7]
  maximal growth inhibition: 49.6%
[8]
  maximal growth inhibition: 60.3%
[9]
  maximal growth inhibition: 42.8%
[10]
  maximal growth inhibition: 38.1%
[11]
  maximal growth inhibition: 40.8%
[12]
  area under dose-response curve: 31.5
[13]
  area under dose-response curve: 38.3
[14]
  area under dose-response curve: 165
[15]
  area under dose-response curve: 40.7
[16]
  area under dose-response curve: 40.2
[17]
  area under dose-response curve: 38.1
[18]
  area under dose-response curve: 52.8
[19]
  area under dose-response curve: 53
[20]
  area under dose-response curve: 2.47
[21]
  area under dose-response curve: 67.1
[22]
  area under dose-response curve: 13.1
[23]
  area under dose-response curve: 39.9
[24]
  area under dose-response curve: 39.9
[25]
  area under dose-response curve: 6.34
[26]
  area under dose-response curve: 9.3
[27]
  area under dose-response curve: 53.6
[28]
  EC50 (log10 M): -5.13
[29]
  EC50 (log10 M): -5.13
[30]
  EC50 (log10 M): -5.16
[31]
  EC50 (log10 M): -5.03
[32]
  EC50 (log10 M): -4.98
[33]
  EC50 (log10 M): -5.05
[34]
  EC50 (log10 M): -5.07
[35]
  EC50 (log10 M): -5.12
[36]
  EC50 (log10 M): -4.94
[37]
  EC50 (log10 M): -5.05
[38]
  EC50 (log10 M): -5.33

## Nc1ccc2ncnc(NCCc3ccc(Oc4ccccc4)cc3)c2c1 [EVP4593]
[39]
  maximal growth inhibition: 46.2%
[3]
  maximal growth inhibition: 35.9%
[4]
  maximal growth inhibition: 44.9%
[5]
  maximal growth inhibition: 45.1%
[6]
  maximal growth inhibition: 84.8%
[40]
  maximal growth inhibition: 47.8%
[8]
  maximal growth inhibition: 74.9%
[9]
  maximal growth inhibition: 54.6%
[10]
  maximal growth inhibition: 46.7%
[41]
  maximal growth inhibition: 38.5%
[42]
  maximal growth inhibition: 37.7%
[12]
  area under dose-response curve: 183
[13]
  area under dose-response curve: 113
[14]
  area under dose-response curve: 224
[15]
  area under dose-response curve: 171
[16]
  area under dose-response curve: 173
[17]
  area under dose-response curve: 179
[18]
  area under dose-response curve: 348
[19]
  area under dose-response curve: 275
[20]
  area under dose-response curve: 178
[21]
  area under dose-response curve: 296
[22]
  area under dose-response curve: 71.8
[23]
  area under dose-response curve: 242
[24]
  area under dose-response curve: 216
[25]
  area under dose-response curve: 156
[26]
  area under dose-response curve: 141
[27]
  area under dose-response curve: 447
[43]
  EC50 (log10 M): -7.97
[30]
  EC50 (log10 M): -8.18
[31]
  EC50 (log10 M): -7.84
[32]
  EC50 (log10 M): -7.98
[33]
  EC50 (log10 M): -8.11
[44]
  EC50 (log10 M): -7.71
[35]
  EC50 (log10 M): -7.95
[36]
  EC50 (log10 M): -8.43
[37]
  EC50 (log10 M): -8.62
[45]
  EC50 (log10 M): -8.04
[46]
  EC50 (log10 M): -7.75
